The nature of data set [1]: Cytotoxicity against human MT4 cells. Type of data set: cell-based.
Data set [2] is described as follows: Cytotoxicity against human Hep2 cells. Type of data set: cell-based, HEp-2.
The subject of another data set is Human orthopneumovirus. Nature of the data set: Antiviral activity against Human respiratory syncytial virus. The data set is classed as functional, organism-based.
Data set [3] is described as follows: Inhibition of Human respiratory syncytial virus RNP.

Each structure is given as a SMILES string.

`N#C[C@]1(CO)O[C@@H](c2cc(F)c3c(N)ncnn23)[C@H](O)[C@@H]1O`: the CC50 in data set [1] is more than 93 µM; in data set [2], more than 100 µM. It took 9.2 µM to reach a half-maximal effect in the data set on Human orthopneumovirus (EC50).

The molecule `C#C[C@]1(COP(=O)(O)OP(=O)(O)OP(=O)(O)O)O[C@@H](c2ccc3c(N)ncnn23)[C@H](F)[C@@H]1O` returned an IC50 in data set [3] of 1 µM.

Consider `N#C[C@]1(CO)O[C@@H](c2ccc3c(N)ncnn23)[C@H](O)[C@@H]1O`, for which the CC50 in data set [1] was more than 53 µM; in data set [2], more than 50 µM. For the same molecule, a half-maximal response in the data set on Human orthopneumovirus (EC50) required 7.3 µM.

As for `C#C[C@]1(CO)O[C@@H](c2ccc3c(N)ncnn23)[C@H](F)[C@@H]1O`, the CC50 in data set [1] was more than 106 µM; in data set [2], more than 100 µM. Besides, in the data set on Human orthopneumovirus, the EC50 amounted to 9.6 µM.

On to `[N-]=[N+]=N[C@]1(CO)O[C@@H](c2ccc3c(N)nc(F)nn23)[C@H](F)[C@@H]1O`, for which the CC50 was 32 µM in data set [1] and more than 100 µM in data set [2]. In the data set on Human orthopneumovirus, the EC50 turned out to be 0.57 µM.

Consider `CC(C)(C)C(=O)SCCOP(=O)(OCCSC(=O)C(C)(C)C)OC[C@@]1(C#N)O[C@@H](c2ccc3c(N)ncnn23)[C@H](O)[C@@H]1O`, for which the figures for the CC50 in data set [1] and in data set [2] were 7.3 µM and 39 µM, respectively. The EC50 in the data set on Human orthopneumovirus came to 1 µM.

Source of the values: ChEMBL document CHEMBL3608287, “Potential Treatment for the Respiratory Syncytial Virus Infections (HRSV)” (ACS Med Chem Lett, 2015).
